Results from patent US9650339B2, “Inhibitors of histone demethylases” (Gilead Sciences, Inc., priority 2013, dated 2017).

Assays:
KDM3B (JMJD1B) = target: T1, KDM3B (JMJD1B) (Homo sapiens, UniProt Q7LBC6); test: Histone lysine demethylase AlphaLISA assay, KDM3B; type: biochemical; conditions: read-out: KDM3B HDME Inhibition IC50
T1 construct: 842-1761; host or cells: Bac (baculovirus system)
T1 sequence (Q7LBC6 842-1761): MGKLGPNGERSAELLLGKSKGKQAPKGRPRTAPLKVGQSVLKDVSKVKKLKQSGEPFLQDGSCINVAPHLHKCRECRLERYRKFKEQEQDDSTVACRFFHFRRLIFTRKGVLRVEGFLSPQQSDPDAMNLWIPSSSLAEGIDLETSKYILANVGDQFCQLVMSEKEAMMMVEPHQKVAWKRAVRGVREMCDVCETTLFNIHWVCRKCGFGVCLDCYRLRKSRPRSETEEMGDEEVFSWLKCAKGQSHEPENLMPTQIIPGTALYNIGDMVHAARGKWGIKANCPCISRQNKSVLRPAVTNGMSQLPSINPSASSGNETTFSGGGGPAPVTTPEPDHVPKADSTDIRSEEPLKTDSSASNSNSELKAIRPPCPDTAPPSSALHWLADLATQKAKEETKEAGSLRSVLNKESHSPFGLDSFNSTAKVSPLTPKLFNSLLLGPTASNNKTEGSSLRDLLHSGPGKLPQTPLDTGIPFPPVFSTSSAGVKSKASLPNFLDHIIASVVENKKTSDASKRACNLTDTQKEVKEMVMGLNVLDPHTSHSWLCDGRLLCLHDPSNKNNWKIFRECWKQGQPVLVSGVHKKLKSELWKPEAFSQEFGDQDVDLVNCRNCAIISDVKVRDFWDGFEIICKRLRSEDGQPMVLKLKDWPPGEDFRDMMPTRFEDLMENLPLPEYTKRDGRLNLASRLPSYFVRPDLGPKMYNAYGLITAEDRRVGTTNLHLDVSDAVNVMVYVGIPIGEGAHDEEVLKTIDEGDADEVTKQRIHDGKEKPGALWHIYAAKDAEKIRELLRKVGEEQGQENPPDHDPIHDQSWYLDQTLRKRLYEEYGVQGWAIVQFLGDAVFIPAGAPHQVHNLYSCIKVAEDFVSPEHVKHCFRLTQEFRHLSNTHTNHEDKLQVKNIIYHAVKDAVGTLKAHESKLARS
Procedure, shortened: (§1)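 Steps: enzyme equilibrated 10 min in buffer; compounds in 3% DMSO solution added, 10 min; substrate mix added (peptide, 25 μM L-Asc, 10 μM α-KG), room temperature; acceptor beads, then streptavidin donor beads, dark incubations; plate read.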

KDM6B (JMJD3) = target: T2, KDM6B (JMJD3) (Homo sapiens, UniProt O15054); test: Histone lysine demethylase AlphaLISA assay, KDM6B; type: biochemical; conditions: read-out: KDM6B HDME Inhibition IC50
T2 construct: 1043-end; purchased BPS; host or cells: Bac (baculovirus system)
T2 sequence (O15054 1043-1682 isoform O15054-1 limits assumed): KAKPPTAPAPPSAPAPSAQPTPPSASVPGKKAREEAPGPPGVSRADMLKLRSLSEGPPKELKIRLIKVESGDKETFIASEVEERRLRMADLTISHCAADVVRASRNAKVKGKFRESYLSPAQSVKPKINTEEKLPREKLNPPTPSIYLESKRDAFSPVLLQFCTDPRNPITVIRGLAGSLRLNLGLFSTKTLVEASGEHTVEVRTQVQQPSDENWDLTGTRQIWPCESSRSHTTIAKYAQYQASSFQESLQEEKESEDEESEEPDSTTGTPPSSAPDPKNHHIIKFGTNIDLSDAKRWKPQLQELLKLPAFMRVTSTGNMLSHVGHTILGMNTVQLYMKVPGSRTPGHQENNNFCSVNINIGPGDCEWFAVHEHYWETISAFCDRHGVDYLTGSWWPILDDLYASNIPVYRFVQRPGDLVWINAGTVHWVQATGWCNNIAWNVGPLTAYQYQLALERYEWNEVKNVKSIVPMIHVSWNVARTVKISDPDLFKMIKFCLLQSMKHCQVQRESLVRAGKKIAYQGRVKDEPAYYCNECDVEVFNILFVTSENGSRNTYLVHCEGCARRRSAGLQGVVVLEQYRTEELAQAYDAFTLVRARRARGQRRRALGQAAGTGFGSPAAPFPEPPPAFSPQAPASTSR
Procedure, shortened: as §1

KDM5B = target: T3, KDM5B (Homo sapiens, UniProt Q9UGL1); test: Histone lysine demethylase immunofluorescence assay, U2OS cells transfected with KDM5B; type: cell-based; conditions: U2OS cells transfected with pCMVHA KDM5B; mark detected H3K4me2; 20 hours
T3 construct: (a.a. 1-752); host or cells: U2OS
T3 sequence (Q9UGL1 1-752): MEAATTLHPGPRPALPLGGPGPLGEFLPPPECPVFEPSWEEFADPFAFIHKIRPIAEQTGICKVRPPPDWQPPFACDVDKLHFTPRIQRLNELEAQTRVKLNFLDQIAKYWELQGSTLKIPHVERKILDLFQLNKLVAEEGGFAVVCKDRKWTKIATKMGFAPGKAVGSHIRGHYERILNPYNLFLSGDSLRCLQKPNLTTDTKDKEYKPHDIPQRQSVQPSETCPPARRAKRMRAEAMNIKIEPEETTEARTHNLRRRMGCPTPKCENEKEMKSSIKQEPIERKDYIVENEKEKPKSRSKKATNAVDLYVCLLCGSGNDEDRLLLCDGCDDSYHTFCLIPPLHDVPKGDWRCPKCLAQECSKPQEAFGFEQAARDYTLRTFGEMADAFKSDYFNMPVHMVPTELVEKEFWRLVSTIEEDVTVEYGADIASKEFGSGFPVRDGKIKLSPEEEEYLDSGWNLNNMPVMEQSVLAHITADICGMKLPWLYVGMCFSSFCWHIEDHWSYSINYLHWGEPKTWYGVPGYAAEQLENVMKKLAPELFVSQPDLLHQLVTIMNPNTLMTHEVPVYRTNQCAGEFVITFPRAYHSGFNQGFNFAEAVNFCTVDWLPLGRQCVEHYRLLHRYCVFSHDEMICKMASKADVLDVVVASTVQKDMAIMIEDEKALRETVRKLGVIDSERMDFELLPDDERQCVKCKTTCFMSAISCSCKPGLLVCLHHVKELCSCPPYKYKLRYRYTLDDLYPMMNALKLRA
Procedure, shortened: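 U2OS cells were transiently transfected with HA-tagged demethylase and reseeded after 6 h into compound-containing DMEM/10% FBS for 20 h. Cells were fixed in formaldehyde and immunostained for HA and the relevant histone methyl mark, then imaged. IC50 is based on mean mark staining in HA+ transfected cells.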

Structure (SMILES) | IC50 (KDM3B (JMJD1B)) | IC50 (KDM6B (JMJD3)) | IC50 (KDM5B)
CN(C)CCCCNCc1cc(CN)ccn1 [Compound 2, [2-({[4-(dimethylamino)butyl]-amino}methyl)pyridin-4-yl]methanamine] | > 2500 nM | > 2500 nM | < 250 nM
CN(C)CCNCc1ccnc(CNCCCN(C)Cc2ccccc2)c1 [Compound 18, benzyl[3-({[4-({[2-(dimethylamino)ethyl]-amino}methyl)pyridin-2-yl]methyl}-amino)propyl]-methylamine] | > 2500 nM | > 2500 nM | 
COCCNCc1ccnc(CNCCCN(C)Cc2ccccc2)c1 [Compound 19, benzyl(3-{[(4-{[(2-methoxyethyl)amino]-methyl}pyridin-2-yl)methyl]amino}-propyl)methylamine] | > 2500 nM | > 2500 nM | > 2500 nM
COc1ccccc1CN1CCC(NC(=O)CNCc2cc(CNC3CC3)ccn2)CC1 [Compound 20, 2-[({4-[(cyclopropylamino)-methyl]pyridin-2-yl}methyl)amino]-N-{1-[(2-methoxyphenyl)methyl]-piperidin-4-yl}acetamide] | > 2500 nM | > 2500 nM | 250 to 2500 nM
CCN(CCN(C)C)C(=O)CN(Cc1cc(CNC(=O)C(F)(F)F)ccn1)C(=O)C(F)(F)F [Compound 26, N-[(2-{[N-({[2-(dimethylamino)ethyl]-(ethyl)carbamoyl}-methyl)-2,2,2-trifluoroacetamido]-methyl}pyridin-4-yl)methyl]-2,2,2-trifIuoroacetamide] |  |  | < 250 nM

Other lines, results leading:

IC50 (KDM3B (JMJD1B)) | IC50 (KDM6B (JMJD3)) | IC50 (KDM5B) | Structure (SMILES)
> 2500 nM | > 2500 nM | > 2500 nM | COC(=O)CNCc1cc(/C=N/C2CC2)ccn1 [Compound 59, methyl 2-[({4-[N-cyclopropyl-carboximidoyl]pyridin-2-yl}methyl)amino]-acetate]
 |  | < 250 nM | CCN(CC)CCCCNCc1cc(C2NCCCN2C)ccn1 (stereo not drawn) [Compound 68, [4-(diethylamino)butyl]({[4-(1-methyl-1,3-diazinan-2-yl)pyridin-2-yl]methyl})amine]
> 2500 nM |  | 250 to 2500 nM | O=Cc1ccnc(CNCCCCN(Cc2ccccc2)C2CC2)c1 [Compound 109, 2-[({4-[benzyl-(cyclopropyl)amino]-butyl}amino)methyl]-pyridine-4-carbaldehyde]
> 2500 nM | > 2500 nM | > 2500 nM | O=Cc1ccnc(CNCC(=O)NC2CCN(Cc3ccccc3)C2)c1 (stereo not drawn) [Compound 113, N-(1-benzylpyrrolidin-3-yl)-2-{[(4-formylpyridin-2-yl)methyl]amino}-acetamide]
